Here are results for 9 compounds from ChEMBL document CHEMBL5465560, “Selectivity Literature for EUbOPEN Chemogenomic Library” (2024).

Experiment [1] deals with Tyrosine-protein kinase Yes (Homo sapiens) (UniProt P07947). The experiment can be described thus: Selectivity interaction (Upstate Kinase Profiler service (Millipore)) EUB0000056c YES1. Conditions: at 1 µM.
In experiment [2] the target is STE20/SPS1-related proline-alanine-rich protein kinase (Homo sapiens) (UniProt Q9UEW8). The experiment can be described thus: Selectivity interaction (Kinase panel (DSF assay)) EUB0001558a STK39.
The target of experiment [3] is T1, SNF-related serine/threonine-protein kinase (Homo sapiens) (UniProt Q9NRH2).
T1 sequence (whole entry): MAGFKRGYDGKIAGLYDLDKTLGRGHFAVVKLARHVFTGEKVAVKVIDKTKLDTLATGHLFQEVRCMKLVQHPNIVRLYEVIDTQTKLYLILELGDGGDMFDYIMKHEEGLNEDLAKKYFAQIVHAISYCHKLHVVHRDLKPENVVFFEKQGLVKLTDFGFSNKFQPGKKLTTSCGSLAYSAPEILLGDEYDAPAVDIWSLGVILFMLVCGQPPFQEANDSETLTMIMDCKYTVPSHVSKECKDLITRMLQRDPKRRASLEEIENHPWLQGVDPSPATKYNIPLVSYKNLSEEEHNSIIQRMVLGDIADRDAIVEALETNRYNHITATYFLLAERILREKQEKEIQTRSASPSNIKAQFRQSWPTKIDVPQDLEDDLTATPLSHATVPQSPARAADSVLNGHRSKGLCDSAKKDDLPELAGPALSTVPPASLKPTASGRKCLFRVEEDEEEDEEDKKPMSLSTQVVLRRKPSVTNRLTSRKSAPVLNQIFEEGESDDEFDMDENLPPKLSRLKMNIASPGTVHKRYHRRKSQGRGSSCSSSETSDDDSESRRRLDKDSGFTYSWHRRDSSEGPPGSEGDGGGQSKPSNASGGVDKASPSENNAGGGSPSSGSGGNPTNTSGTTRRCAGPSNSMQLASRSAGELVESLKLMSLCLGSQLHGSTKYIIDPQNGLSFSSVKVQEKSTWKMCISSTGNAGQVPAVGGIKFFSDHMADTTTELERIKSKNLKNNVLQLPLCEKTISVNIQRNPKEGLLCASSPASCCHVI
The experiment can be described thus: Selectivity interaction (KinomeScan (DiscoverX)) EUB0000695a SNRK. Conditions: at 100 nM.

The target of experiment [4] is T2, cGMP-dependent protein kinase 2 (Homo sapiens) (UniProt Q13237).
T2 sequence (whole entry): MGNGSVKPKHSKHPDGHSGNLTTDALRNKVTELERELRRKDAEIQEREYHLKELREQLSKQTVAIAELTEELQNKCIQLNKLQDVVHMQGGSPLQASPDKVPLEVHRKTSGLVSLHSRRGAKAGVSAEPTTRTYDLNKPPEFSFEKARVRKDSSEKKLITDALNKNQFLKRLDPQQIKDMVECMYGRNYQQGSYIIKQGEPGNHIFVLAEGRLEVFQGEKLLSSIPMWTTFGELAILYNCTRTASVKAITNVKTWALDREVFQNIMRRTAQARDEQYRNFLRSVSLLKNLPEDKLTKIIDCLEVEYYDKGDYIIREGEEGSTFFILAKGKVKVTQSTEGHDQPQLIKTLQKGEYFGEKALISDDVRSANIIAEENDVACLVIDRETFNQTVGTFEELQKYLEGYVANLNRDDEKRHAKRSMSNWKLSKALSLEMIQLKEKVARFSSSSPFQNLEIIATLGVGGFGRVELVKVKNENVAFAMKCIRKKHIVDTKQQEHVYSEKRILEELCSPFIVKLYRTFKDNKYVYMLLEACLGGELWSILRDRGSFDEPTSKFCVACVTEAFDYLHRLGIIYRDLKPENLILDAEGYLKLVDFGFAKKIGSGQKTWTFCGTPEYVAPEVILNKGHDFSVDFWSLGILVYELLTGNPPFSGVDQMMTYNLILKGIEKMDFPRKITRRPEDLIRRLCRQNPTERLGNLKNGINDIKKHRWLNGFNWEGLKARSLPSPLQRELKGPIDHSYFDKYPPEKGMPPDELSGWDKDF
The experiment is described as follows: Selectivity interaction (KinomeScan (DiscoverX)) EUB0000695a PRKG2. Conditions: at 100 nM.

Experiment [5] concerns the target Phosphatidylinositol 4-kinase beta (Homo sapiens, UniProt Q9UBF8). The experiment can be described thus: Selectivity interaction (Adapta Assay) EUB0001632a PI4KB. Conditions: at 10 µM.
Experiment [6] has as its target Serine/threonine-protein kinase PRP4 homolog (Homo sapiens) (UniProt Q13523). The experiment is described as follows: Selectivity interaction (ActivX KiNativ screen (kinase selectivity in THP-1 cell lysates)) EUB0000639a PRPF4. Type of experiment: subcellular. Conditions: lysate, at 0.01 µM.
Experiment [7] addresses Serine/threonine-protein kinase N2 (Homo sapiens, UniProt Q16513). The experiment is described as follows: Selectivity interaction (KinomeScan (DiscoverX)) EUB0000229b PKN2. Conditions: at 10 µM.
Experiment [8] addresses Interleukin-1 receptor-associated kinase 1 (Homo sapiens) (UniProt P51617). The experiment is described as follows: Selectivity interaction (KinomeScan (DiscoverX)) EUB0000595a IRAK1. Conditions: at 10 µM.
Experiment [9] addresses Calcium/calmodulin-dependent protein kinase kinase 1 (Homo sapiens) (UniProt Q8N5S9). The experiment is described as follows: Selectivity interaction (KinomeScan (DiscoverX)) EUB0001619a CAMKK1. Conditions: at 1 µM.
Experiment [10] addresses T3, Scaffold protein ILK (Homo sapiens) (UniProt Q13418).
T3 sequence (whole entry): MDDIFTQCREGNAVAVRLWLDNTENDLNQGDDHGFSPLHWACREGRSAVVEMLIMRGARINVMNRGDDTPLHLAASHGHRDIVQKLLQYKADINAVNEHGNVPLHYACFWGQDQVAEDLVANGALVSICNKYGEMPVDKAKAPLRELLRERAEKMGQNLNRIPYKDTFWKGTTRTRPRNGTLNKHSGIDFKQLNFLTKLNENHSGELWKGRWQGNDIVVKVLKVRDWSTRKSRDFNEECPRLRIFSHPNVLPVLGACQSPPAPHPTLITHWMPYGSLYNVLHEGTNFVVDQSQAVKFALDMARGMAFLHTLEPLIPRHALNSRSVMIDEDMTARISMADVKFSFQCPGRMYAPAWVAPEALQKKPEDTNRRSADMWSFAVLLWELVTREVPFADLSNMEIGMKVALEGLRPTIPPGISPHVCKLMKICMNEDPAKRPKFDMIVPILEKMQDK
The experiment can be described thus: Selectivity interaction (Kinase panel (KiNativ target engagement assay in Jurkat cells)) EUB0001635a ILK. The experiment is classed as cell-based. Conditions: Selectivity number of off-targets 0.0, Selectivity number of targets 233.0, Source Knowledge https://www.sciencedirect.com/science/article/pii/S2451945619300674?via%3Dihub, at 1 µM.

Experiment [11] has as its target Serine/threonine-protein kinase tousled-like 2 (Homo sapiens) (UniProt Q86UE8). The experiment can be described thus: Selectivity interaction (Kinase panel (KiNativ target engagement assay in Jurkat cells)) EUB0001635a TLK2. The experiment is classed as cell-based. As to conditions: at 1 µM.

Structures are written as SMILES.

Serine/threonine-protein kinase tousled-like 2 (Homo sapiens), sequence (Q86UE8 whole entry, looked up): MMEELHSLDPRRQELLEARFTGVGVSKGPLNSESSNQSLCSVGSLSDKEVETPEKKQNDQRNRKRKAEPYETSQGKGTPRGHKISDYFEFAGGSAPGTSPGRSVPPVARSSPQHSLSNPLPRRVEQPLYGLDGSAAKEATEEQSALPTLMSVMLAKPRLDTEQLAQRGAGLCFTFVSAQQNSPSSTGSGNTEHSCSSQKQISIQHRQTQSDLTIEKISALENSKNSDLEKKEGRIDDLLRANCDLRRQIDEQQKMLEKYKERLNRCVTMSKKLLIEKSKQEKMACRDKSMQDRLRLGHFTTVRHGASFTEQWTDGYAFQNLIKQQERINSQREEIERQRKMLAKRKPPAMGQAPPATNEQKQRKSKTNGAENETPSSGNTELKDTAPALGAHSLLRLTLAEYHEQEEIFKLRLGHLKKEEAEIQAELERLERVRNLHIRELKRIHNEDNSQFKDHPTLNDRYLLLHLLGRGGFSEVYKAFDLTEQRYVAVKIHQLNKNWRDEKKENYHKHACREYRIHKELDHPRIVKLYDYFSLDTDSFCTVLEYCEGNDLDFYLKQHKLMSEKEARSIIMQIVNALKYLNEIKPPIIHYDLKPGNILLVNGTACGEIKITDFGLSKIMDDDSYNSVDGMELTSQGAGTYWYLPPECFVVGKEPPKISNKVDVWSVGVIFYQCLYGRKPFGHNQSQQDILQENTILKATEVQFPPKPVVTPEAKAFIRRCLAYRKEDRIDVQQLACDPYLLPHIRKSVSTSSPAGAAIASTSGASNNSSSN
Interleukin-1 receptor-associated kinase 1 (Homo sapiens), sequence (P51617 whole entry, looked up): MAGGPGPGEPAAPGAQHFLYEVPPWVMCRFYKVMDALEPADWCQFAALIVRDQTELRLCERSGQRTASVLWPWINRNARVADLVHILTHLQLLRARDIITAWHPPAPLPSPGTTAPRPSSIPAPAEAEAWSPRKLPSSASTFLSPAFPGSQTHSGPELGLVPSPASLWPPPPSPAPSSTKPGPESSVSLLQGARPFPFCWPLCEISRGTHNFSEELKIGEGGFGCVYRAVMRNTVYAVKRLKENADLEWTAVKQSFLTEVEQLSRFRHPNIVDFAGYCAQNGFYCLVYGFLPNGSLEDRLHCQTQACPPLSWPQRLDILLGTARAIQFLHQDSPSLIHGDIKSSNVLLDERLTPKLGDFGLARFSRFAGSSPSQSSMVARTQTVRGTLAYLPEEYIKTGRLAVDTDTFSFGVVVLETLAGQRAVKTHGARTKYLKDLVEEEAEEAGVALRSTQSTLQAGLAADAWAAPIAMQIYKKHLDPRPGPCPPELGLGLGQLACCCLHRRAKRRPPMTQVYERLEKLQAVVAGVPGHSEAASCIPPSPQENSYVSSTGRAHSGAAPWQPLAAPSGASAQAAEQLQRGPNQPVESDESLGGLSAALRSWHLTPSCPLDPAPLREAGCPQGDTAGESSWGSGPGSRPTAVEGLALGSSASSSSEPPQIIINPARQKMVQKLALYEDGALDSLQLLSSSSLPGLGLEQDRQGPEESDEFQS
Phosphatidylinositol 4-kinase beta, sequence (Q9UBF8 2-816 limits assumed): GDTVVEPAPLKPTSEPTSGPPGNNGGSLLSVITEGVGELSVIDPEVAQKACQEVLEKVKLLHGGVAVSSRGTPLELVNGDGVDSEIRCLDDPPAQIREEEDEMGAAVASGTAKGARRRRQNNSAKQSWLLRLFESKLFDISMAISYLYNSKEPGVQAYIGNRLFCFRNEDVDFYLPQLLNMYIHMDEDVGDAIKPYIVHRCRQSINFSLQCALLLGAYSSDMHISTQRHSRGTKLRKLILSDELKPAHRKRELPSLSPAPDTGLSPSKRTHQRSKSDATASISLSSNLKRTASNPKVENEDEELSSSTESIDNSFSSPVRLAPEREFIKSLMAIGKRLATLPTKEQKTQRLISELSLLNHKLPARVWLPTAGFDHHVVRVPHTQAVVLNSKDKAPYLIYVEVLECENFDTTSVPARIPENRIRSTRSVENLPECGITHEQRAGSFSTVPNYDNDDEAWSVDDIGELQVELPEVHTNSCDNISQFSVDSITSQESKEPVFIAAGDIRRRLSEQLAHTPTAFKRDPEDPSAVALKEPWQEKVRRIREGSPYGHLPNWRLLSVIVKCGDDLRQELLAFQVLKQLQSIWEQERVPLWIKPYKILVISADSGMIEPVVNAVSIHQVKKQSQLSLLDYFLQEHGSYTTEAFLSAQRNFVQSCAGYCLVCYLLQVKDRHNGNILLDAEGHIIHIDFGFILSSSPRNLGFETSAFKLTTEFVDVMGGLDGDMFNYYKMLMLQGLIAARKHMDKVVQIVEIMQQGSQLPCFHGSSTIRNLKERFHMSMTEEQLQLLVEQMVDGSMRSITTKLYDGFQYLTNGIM
Tyrosine-protein kinase Yes (Homo sapiens), sequence (P07947 2-543 limits assumed): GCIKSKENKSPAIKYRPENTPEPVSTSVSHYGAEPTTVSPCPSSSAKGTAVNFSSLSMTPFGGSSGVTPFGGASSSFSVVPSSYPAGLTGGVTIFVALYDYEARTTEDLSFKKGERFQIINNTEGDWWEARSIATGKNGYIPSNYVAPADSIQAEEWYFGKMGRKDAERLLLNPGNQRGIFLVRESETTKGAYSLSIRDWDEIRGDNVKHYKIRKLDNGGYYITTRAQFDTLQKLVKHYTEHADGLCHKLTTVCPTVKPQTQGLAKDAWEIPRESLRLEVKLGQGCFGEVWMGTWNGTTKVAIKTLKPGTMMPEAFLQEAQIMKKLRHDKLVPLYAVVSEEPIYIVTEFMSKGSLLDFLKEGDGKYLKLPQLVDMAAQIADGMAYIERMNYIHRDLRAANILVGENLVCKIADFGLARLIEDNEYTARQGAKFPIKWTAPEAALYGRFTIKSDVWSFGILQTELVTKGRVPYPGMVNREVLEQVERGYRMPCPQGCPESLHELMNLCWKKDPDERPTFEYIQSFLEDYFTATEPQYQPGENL
Calcium/calmodulin-dependent protein kinase kinase 1 (Homo sapiens), sequence (Q8N5S9 whole entry, looked up): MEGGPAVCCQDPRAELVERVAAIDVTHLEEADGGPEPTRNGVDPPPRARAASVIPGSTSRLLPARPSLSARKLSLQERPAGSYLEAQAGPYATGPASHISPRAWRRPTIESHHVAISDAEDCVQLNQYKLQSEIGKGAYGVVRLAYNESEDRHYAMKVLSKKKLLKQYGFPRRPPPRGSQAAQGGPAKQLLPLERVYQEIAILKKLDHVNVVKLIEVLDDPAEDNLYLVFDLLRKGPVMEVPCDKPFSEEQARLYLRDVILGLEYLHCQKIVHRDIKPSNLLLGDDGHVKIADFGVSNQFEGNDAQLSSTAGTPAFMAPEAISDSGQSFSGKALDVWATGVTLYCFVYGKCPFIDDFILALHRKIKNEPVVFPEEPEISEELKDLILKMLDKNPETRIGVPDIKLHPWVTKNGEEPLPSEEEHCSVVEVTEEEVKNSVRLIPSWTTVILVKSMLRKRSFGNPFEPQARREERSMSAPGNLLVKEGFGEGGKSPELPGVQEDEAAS
Serine/threonine-protein kinase PRP4 homolog (Homo sapiens), sequence (Q13523 whole entry): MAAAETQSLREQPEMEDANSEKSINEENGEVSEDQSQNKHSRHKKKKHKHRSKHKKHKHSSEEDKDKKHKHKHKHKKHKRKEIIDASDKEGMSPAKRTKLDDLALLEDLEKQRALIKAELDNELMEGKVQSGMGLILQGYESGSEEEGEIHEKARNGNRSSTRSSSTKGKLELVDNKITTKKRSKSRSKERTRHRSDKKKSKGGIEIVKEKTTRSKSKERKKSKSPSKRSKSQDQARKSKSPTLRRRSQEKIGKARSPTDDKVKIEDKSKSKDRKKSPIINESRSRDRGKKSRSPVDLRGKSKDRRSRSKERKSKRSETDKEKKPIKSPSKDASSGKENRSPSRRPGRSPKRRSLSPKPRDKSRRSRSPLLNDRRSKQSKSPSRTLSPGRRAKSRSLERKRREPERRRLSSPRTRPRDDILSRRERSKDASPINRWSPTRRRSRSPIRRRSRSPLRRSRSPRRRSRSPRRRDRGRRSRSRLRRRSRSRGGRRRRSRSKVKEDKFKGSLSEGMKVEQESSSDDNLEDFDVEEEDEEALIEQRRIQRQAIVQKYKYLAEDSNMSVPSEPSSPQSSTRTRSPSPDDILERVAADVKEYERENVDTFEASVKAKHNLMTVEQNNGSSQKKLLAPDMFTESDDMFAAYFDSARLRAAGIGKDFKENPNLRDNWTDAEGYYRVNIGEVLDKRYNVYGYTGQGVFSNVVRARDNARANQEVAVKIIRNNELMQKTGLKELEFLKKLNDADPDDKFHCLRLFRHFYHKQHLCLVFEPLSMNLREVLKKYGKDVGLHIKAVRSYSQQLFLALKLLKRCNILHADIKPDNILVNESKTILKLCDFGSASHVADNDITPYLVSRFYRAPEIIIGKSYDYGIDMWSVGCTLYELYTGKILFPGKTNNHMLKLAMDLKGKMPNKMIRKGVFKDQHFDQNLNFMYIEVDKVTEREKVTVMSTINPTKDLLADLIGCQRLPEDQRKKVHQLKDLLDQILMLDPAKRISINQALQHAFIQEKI

In the case of `Cc1ccc(-c2ccc3c(ccc4sc5c(c43)NC[C@@H](C)NC5=O)n2)cn1`, the % of inhibition in [1] turned out to be 31%.

Take `CC(C)(O)[C@H](F)CN1Cc2cc(NC(=O)c3cnn4cccnc34)c(N3CCOCC3)cc2C1=O`: the dTM in experiment [2] is 0.2 K.

With `Cc1cc(F)c(C(=O)Nc2cccc(-c3nncn3C(C)C)n2)cc1-n1cnc(C2CC2)c1`, the % of control in experiment [3] came out at 97%; in experiment [4] it was 88%.

As for `Cn1cc(-n2cnc3c(NCc4nc5cc(Cl)c(Cl)cc5[nH]4)nc(N4CCOCC4)nc32)cn1`, the % of inhibition in [5] is -10.8%.

Take `CC[C@@H]1[C@H](F)C(=O)N[C@@H]1COc1nccc2cc(C(N)=O)c(OC)cc12` [ZIMLOVISERTIB]: the % of inhibition in experiment [6] was determined as 15.8%.

Regarding `COc1cc(N(C)c2ccnc3ccc(C(F)(F)F)cc23)cc(OC)c1OC`, the % binding in [7] turned out to be 84%.

The compound `COCC(=O)NC/C=C/c1ccc2ncnc(Nc3ccc(Oc4ccc(C)nc4)c(C)c3)c2c1` [CP-724714] returned a % of control in [8] of 100%.

In the case of `N#Cc1cccc(-c2c[nH]c3ncnc(N4CCOCC4)c23)c1`, the % of control in [9] worked out at 100%.

On to `C=CC(=O)Nc1ccc(C(=O)Nc2[nH]nc3c2CN(C(=O)N[C@H](CN(C)C)c2ccccc2)C3(C)C)cc1`, for which the % of engagement in [10] is -11.5%; in experiment [11] (Selectivity number of off-targets 0.0, Selectivity number of targets 233.0, Source Knowledge https://www.sciencedirect.com/science/article/pii/S2451945619300674?via%3Dihub), 6.8%; in [11] it was 13.7%.
